≈ marks a conversion by molar mass, not a printed value.
Key:
Mannheimia haemolytica = assay: minimum inhibitory concentration (MIC)
Experimental: (§1)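 Broth microdilution MIC (Sensititre BOPO7F bovine plate, CLSI methods) of 19 antimicrobials against field isolates of P. multocida, M. haemolytica, H. somni (deep nasopharyngeal swabs) and E. coli, Enterococcus spp. (rectal swabs) from weaned dairy heifers. Incubation 16-24 h at 35 C. MIC is the lowest concentration preventing visible growth. Values with <= or > lie at the tested range limits. Trimethoprim-sulfamethoxazole is given as the trimethoprim component of a 1:19 mixture.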

Enterococcus spp. = assay: minimum inhibitory concentration (MIC)
Experimental: as §1

CCC[C@@H]1C[C@@H](C(=O)N[C@@H]([C@H]2O[C@H](SC)[C@H](O)[C@@H](O)[C@H]2O)[C@H](C)Cl)N(C)C1 [Clindamycin]
minimum inhibitory concentration [µg/mL]
Settings | Enterococcus spp. | Mannheimia haemolytica
isolate (source animal id): 2 | ≤ 0.25 | –
isolate (source animal id): 8 | – | 16 (≈ 37.6 µM)
isolate (source animal id): 13 | – | 16 (≈ 37.6 µM)
isolate (source animal id): 18 | – | 16 (≈ 37.6 µM)
isolate (source animal id): 21 | – | 16 (≈ 37.6 µM)
isolate (source animal id): 25 | – | > 16
isolate (source animal id): 27 | – | 16 (≈ 37.6 µM)
isolate (source animal id): 28 | – | 16 (≈ 37.6 µM)
isolate (source animal id): 30 | – | 16 (≈ 37.6 µM)
isolate (source animal id): 31 | – | 16 (≈ 37.6 µM)
isolate (source animal id): 32 | – | 8 (≈ 18.8 µM)
isolate (source animal id): 34 | – | 16 (≈ 37.6 µM)
isolate (source animal id): 35 | > 16 | –
isolate (source animal id): 36 | – | 16 (≈ 37.6 µM)
isolate (source animal id): 37 | – | 16 (≈ 37.6 µM)
isolate (source animal id): 40 | – | 8 (≈ 18.8 µM)
isolate (source animal id): 41 | – | 16 (≈ 37.6 µM)
isolate (source animal id): 42 | 16 (≈ 37.6 µM) | –
isolate (source animal id): 43 | – | 16 (≈ 37.6 µM)
isolate (source animal id): 44 | 16 (≈ 37.6 µM) | –
isolate (source animal id): 46 | – | 16 (≈ 37.6 µM)
isolate (source animal id): 49 | – | 16 (≈ 37.6 µM)
isolate (source animal id): 50 | – | 16 (≈ 37.6 µM)
isolate (source animal id): 51 | – | 16 (≈ 37.6 µM)
isolate (source animal id): 52 | – | 16 (≈ 37.6 µM)
isolate (source animal id): 53 | – | 8 (≈ 18.8 µM)
isolate (source animal id): 55 | – | 8 (≈ 18.8 µM)
isolate (source animal id): 56 | – | 16 (≈ 37.6 µM)
isolate (source animal id): 57 | – | > 16
isolate (source animal id): 79 | 16 (≈ 37.6 µM) | –
isolate (source animal id): 88 | ≤ 0.25 | –
isolate (source animal id): 91 | ≤ 0.25 | –
isolate (source animal id): 92 | 2 (≈ 4.71 µM) | –
isolate (source animal id): 100 | – | 16 (≈ 37.6 µM)
isolate (source animal id): 103 | – | 16 (≈ 37.6 µM)
isolate (source animal id): 107 | – | 16 (≈ 37.6 µM)
isolate (source animal id): 108 | – | 16 (≈ 37.6 µM)
isolate (source animal id): 111 | ≤ 0.25 | –
isolate (source animal id): 112 | – | > 16
isolate (source animal id): 113 | – | > 16
isolate (source animal id): 121 | – | > 16
isolate (source animal id): 122 | > 16 | 16 (≈ 37.6 µM)
isolate (source animal id): 123 | 8 (≈ 18.8 µM) | > 16
isolate (source animal id): 126 | – | > 16
isolate (source animal id): 133 | ≤ 0.25 | > 16
isolate (source animal id): 135 | – | > 16
isolate (source animal id): 138 | – | > 16
isolate (source animal id): 141 | – | > 16
isolate (source animal id): 142 | – | > 16
isolate (source animal id): 145 | – | 8 (≈ 18.8 µM)
isolate (source animal id): 149 | – | 8 (≈ 18.8 µM)
isolate (source animal id): 151 | – | 8 (≈ 18.8 µM)
isolate (source animal id): 152 | – | 16 (≈ 37.6 µM)
isolate (source animal id): 154 | – | 8 (≈ 18.8 µM)
isolate (source animal id): 158 | > 16 | –
isolate (source animal id): 159 | – | > 16
isolate (source animal id): 162 | – | > 16
isolate (source animal id): 168 | ≤ 0.25 | –
isolate (source animal id): 169 | ≤ 0.25 | –
isolate (source animal id): 170 | – | 16 (≈ 37.6 µM)
isolate (source animal id): 171 | 16 (≈ 37.6 µM) | 8 (≈ 18.8 µM)
isolate (source animal id): 172 | – | 16 (≈ 37.6 µM)
isolate (source animal id): 173 | – | 16 (≈ 37.6 µM)
isolate (source animal id): 175 | > 16 | –
isolate (source animal id): 177 | 16 (≈ 37.6 µM) | –
isolate (source animal id): 179 | – | 8 (≈ 18.8 µM)
isolate (source animal id): 180 | – | 16 (≈ 37.6 µM)
isolate (source animal id): 181 | ≤ 0.25 | –
isolate (source animal id): 182 | ≤ 0.25 | –
isolate (source animal id): 183 | 16 (≈ 37.6 µM) | 16 (≈ 37.6 µM)
isolate (source animal id): 186 | – | 8 (≈ 18.8 µM)
isolate (source animal id): 187 | ≤ 0.25 | 16 (≈ 37.6 µM)
isolate (source animal id): 188 | – | 16 (≈ 37.6 µM)
isolate (source animal id): 190 | ≤ 0.25 | 16 (≈ 37.6 µM)
isolate (source animal id): 191 | – | 16 (≈ 37.6 µM)
isolate (source animal id): 192 | – | 8 (≈ 18.8 µM)
isolate (source animal id): 194 | 16 (≈ 37.6 µM) | –
isolate (source animal id): 195 | ≤ 0.25 | –
isolate (source animal id): 197 | 0.5 (≈ 1.18 µM) | –
isolate (source animal id): 201 | – | 16 (≈ 37.6 µM)
isolate (source animal id): 202 | – | 8 (≈ 18.8 µM)
isolate (source animal id): 209 | – | 16 (≈ 37.6 µM)
isolate (source animal id): 211 | ≤ 0.25 | 16 (≈ 37.6 µM)
isolate (source animal id): 214 | 2 (≈ 4.71 µM) | –
isolate (source animal id): 220 | – | 16 (≈ 37.6 µM)
isolate (source animal id): 221 | – | 16 (≈ 37.6 µM)
isolate (source animal id): 222 | 16 (≈ 37.6 µM) | –
isolate (source animal id): 223 | 8 (≈ 18.8 µM) | 8 (≈ 18.8 µM)
isolate (source animal id): 228 | 2 (≈ 4.71 µM) | –
isolate (source animal id): 230 | 2 (≈ 4.71 µM) | –
isolate (source animal id): 233 | – | 16 (≈ 37.6 µM)
isolate (source animal id): 235 | > 16 | –
isolate (source animal id): 236 | 8 (≈ 18.8 µM) | –
isolate (source animal id): 237 | – | 16 (≈ 37.6 µM)
isolate (source animal id): 239 | ≤ 0.25 | –
isolate (source animal id): 241 | > 16 | 16 (≈ 37.6 µM)
isolate (source animal id): 244 | 16 (≈ 37.6 µM) | –
isolate (source animal id): 246 | 16 (≈ 37.6 µM) | –
isolate (source animal id): 247 | > 16 | –
isolate (source animal id): 250 | 16 (≈ 37.6 µM) | –
isolate (source animal id): 252 | > 16 | 16 (≈ 37.6 µM)
isolate (source animal id): 253 | – | 16 (≈ 37.6 µM)
isolate (source animal id): 259 | – | > 16
isolate (source animal id): 260 | – | 16 (≈ 37.6 µM)
isolate (source animal id): 262 | – | 16 (≈ 37.6 µM)
isolate (source animal id): 268 | > 16 | –
isolate (source animal id): 282 | 4 (≈ 9.41 µM) | > 16
isolate (source animal id): 285 | > 16 | –
isolate (source animal id): 287 | – | > 16
isolate (source animal id): 288 | – | 16 (≈ 37.6 µM)
isolate (source animal id): 289 | 8 (≈ 18.8 µM) | –
isolate (source animal id): 290 | 16 (≈ 37.6 µM) | –
isolate (source animal id): 291 | – | 16 (≈ 37.6 µM)
isolate (source animal id): 293 | – | > 16
isolate (source animal id): 296 | 16 (≈ 37.6 µM) | –
isolate (source animal id): 298 | ≤ 0.25 | > 16
isolate (source animal id): 299 | – | > 16
isolate (source animal id): 300 | – | 8 (≈ 18.8 µM)
isolate (source animal id): 301 | 0.5 (≈ 1.18 µM) | –
isolate (source animal id): 302 | – | > 16
isolate (source animal id): 304 | – | > 16
isolate (source animal id): 306 | – | 16 (≈ 37.6 µM)
isolate (source animal id): 308 | – | 16 (≈ 37.6 µM)
isolate (source animal id): 309 | – | 16 (≈ 37.6 µM)
isolate (source animal id): 310 | > 16 | –
isolate (source animal id): 313 | – | 16 (≈ 37.6 µM)
isolate (source animal id): 318 | – | 8 (≈ 18.8 µM)
isolate (source animal id): 320 | 4 (≈ 9.41 µM) | 16 (≈ 37.6 µM)
isolate (source animal id): 321 | – | 16 (≈ 37.6 µM)
isolate (source animal id): 323 | – | > 16
isolate (source animal id): 324 | – | 16 (≈ 37.6 µM)
isolate (source animal id): 326 | – | > 16
isolate (source animal id): 328 | – | 16 (≈ 37.6 µM)
isolate (source animal id): 329 | – | 16 (≈ 37.6 µM)
isolate (source animal id): 331 | 8 (≈ 18.8 µM) | –
isolate (source animal id): 333 | 16 (≈ 37.6 µM) | 16 (≈ 37.6 µM)
isolate (source animal id): 335 | – | 16 (≈ 37.6 µM)
isolate (source animal id): 338 | – | 16 (≈ 37.6 µM)
isolate (source animal id): 341 | > 16 | –

— the supplement of paper PMC8612539
